# Test results reported in BindingDB's records for doi:10.1021/acschembio.6b00666 (Virginia Tech, 2016).
# Assays:
# [1] = target: T1, L-ornithine N(5)-monooxygenase (Aspergillus fumigatus (strain ATCC MYA-4609 / CBS 101355 / FGSC A1100 / Af293), UniProt E9QYP0); experiment: SidA Activity Assay; conditions: pH 7.5
# Description: Briefly, this assay consists of the formation of nitrite from hydroxyl amine that is quantified by formation of a chromophore with α-naphthylamine, which has an absorbance maximum at 529 nm. Formation of HO-Orn was quantified using a standard curve with hydroxylamine (25−350 μM). The standard assay contained 25 μL of 100 mM sodium phosphate (pH 7.5), 1 μM SidA, 500 μM L-Orn, and 250 μM NADPH for activity and IC50 determinations. Compound concentration was varied from 0.01 to 1 mM, and the reaction mix contained a final DMSO concentration of 10%. The reaction was started with the addition of NADPH, allowed to proceed for 20 min atRT, and quenched with 13 μL of 2 N HClO4. To identify compounds that caused inhibition by inducing protein aggregation, the IC50 was determined in 100 mM phosphate buffer, pH 7.5, containing 0.1% v/v Triton X-100.23 As some compounds had either an increase or decrease in the color development or had absorbance at a visi
# [2] = target: T1, L-ornithine N(5)-monooxygenase; experiment: ADP-TAMRA Binding Assay; conditions: pH 7
# Description: The 96 well plates were used, and the reaction volume was 25 μL using 50 mM sodium phosphate buffer (pH 7.0). For the screening, 30 nM of ADP-TAMRA with 2 μM SidA (based on the Bradford assay) and 20 μM of library compound were used, withthe final DMSO concentration at 2%. Fluorescence polarization measurements were performed with excitation at 544 nm and emission at 584 nm, using a wavelength cutoff of 570 nm. Anisotropy values were normalized to the values obtained in the negative control sample: SidA, ADP-TAMRA, and DMSO. The positive control consisted of ADP-TAMRA and DMSO.
# T1 sequence (E9QYP0 whole entry): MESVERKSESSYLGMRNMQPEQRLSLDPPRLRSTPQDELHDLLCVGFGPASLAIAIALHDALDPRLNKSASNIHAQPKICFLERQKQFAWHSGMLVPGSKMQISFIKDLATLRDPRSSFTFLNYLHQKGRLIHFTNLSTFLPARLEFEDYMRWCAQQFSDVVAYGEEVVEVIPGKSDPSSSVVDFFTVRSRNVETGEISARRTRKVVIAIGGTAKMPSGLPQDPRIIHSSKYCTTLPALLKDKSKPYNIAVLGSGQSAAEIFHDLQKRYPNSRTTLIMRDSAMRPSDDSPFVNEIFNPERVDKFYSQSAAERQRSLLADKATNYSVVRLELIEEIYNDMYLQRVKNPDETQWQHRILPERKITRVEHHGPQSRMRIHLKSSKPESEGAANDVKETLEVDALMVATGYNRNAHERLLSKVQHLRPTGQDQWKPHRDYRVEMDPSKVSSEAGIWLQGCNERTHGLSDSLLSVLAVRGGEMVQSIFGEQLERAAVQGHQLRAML
compound,measurement,setting,value
CC1=C(O)C(=O)C=C2C1=CC=C1[C@@]2(C)CC[C@@]2(C)[C@@H]3C[C@](C)(C(=O)O)CC[C@]3(C)CC[C@]12C [Celastrol],IC50,[1],11 µM
same,Kd,[2],1.4 µM
